Test results reported in US6590140B1, “Metal-regulated transporters and uses therefor” (Trustees of Dartmouth College, priority 1996, dated 2003).

Legend:
[1] = test system: wild type (DY1457) cells; assay: Zinc-limited growth, wild type yeast; format: cell-based, Saccharomyces cerevisiae; details: LZM, 16 hours
Procedure: Strains used were DY1457 (MATα ade6 can1 his3 leu2 trp1 ura3) and ZHY1 (MaTα ade6 can1 his3 leu2 trp1 ura3 zrt1:: LEU2). Yeast were grown in standard culture media (SD, YPD) (Eide, D., Davis-Kaplan S., Jordan, I., Sipe, D., and Kaplan, J. (199: 2) J. Biol. Chem. 267, 20774-20781) supplemented with necessary auxotrophic requirements and either 2% glucose or 2% galactose. A zinc-limiting medium (LZM) was prepared in the same manner as LIM (Eide and Guarenete (1992) J. Gen. Microbiol. 138:347-354) except that […]. Cell number in liquid cultures was determined by measuring the optical density of cell suspensions at 600 nm (A600) and converting to cell number with a standard curve.
Strains used were DY1457 (MATα ade6 can1 his3 leu2 trp1 ura3), ZHY1 (AMTα ade6 can1 his3 leu2 trp1 ura3 zrt1::LEU2), ZHY2 (MATα ade6 can1 his3 leu2 trp1 ura3 zrt2::HIS3), and ZHY3 (MATα ade6 can1 his3 leu2 trp1 ura3 zrt1::LEU2 zrt2::HIS3). […] The concentrations of free (i.e. unchelated) zinc were calculated using MAXCHELATOR software (Chris Patton, Stanford University). Cell number in liquid cultures was determined by measuring the absorbance of cell suspensions at 600 nm (OD600) and converting to cell number with a standard curve. […]

[2] = test system: zrt1zrt2 strain; assay: Cell-associated zinc, zrt1zrt2 strain; format: cell-based, Saccharomyces cerevisiae
Procedure: Zinc uptake assays were performed as described previously for iron uptake (Eide et al. (1992) J. Biol. Chem. 267:20774-20781) except that ^65ZnCl2 (Amersham) and LZM-EDTA were substituted for ^59FeCI3 and LIM-EDTA, respectively. Cells were incubated for 5 minutes in LZM-EDTA plus the indicated concentration of ^65Zn, collected on glass fiber filters (Schleicher and Schuell), washed with 10 ml ice-cold SSW (1 mM EDTA, 20 mM trisodium citrate, 1 mM KH2PO4, 1 mM CaCl2, 5 mM MgSO4, 1 mM NaCl pH 4.2), and cell-associated radioactivity was measured by liquid scintillation counting. […] Michaelis-Menten kinetic values were determined using […] software (Intellikinetics, Princeton, N.J.). […] The statistical significance of the differences of values relative to controls was determined with one-way analysis of variance (ANOVA) followed by a Dunnett multiple comparison test. β-galactosidase activity was assayed in cells harvested at an OD600 of 0.5-2.0 as described by Guarente (Guarente, L. (1983) Methods Enzymol. 101:181-191) and activity is expressed as the change in absorbance at 420 nm×1000 divided by (min×ml of culture used×OD600 of the culture). Cell-associated zinc was measured in parallel cultures supplemented with tracer amounts of ^65Zn (10 μM) and nonradioactive zinc to the indicated final concentration. […]

**Q.** What does the source list for [Zn+2] [zinc]?
**A.** calculated free zinc [Zn]F sufficient for maximum growth yield [1]: ~6 pM; total zinc sufficient for maximum number of cell divisions [1]: 10 µM; cell-associated zinc ([2]; 10 μM total zinc): 5±0.6 pmol/10^6 cells; cell-associated zinc ([2]; 1000 μM total zinc): 86±21 pmol/10^6 cells
